In patent US20260227411A1, “CONJUGATED METABOLITES FOR CANCER DETECTION AND TREATMENT” (VANDERBILT UNIVERSITY, priority 2023, published 2026):

Experiments:
dysplastic organoids [1] = test: Metabolic enzyme inhibitor treatment of mouse dysplastic organoids; assay type: cell-based
Method: (§1) Mouse gastric organoids were established from corpus of untreated or Gif-rtTA; TetO-Cre; KrasG12D (GCK) mouse stomachs as described previously. The GCK mouse gastric organoids were cultured in ECM Gel (E1270, Sigma-Aldrich) or Cultrex® Reduced Growth Factor Basement Membrane Extract, Type R1 (3433-005-R1, R&D systems) with Mouse IntestiCult medium (06005, StemCell Technology) supplemented with 1% of penicillin/streptomycin (2441832, Gibco) in 48-well plates. The medium was replaced every 3 days and organoids were split every 3 to 5 days. Human gastric organoids were previously established from patients who underwent curative gastrectomy as described. The human gastric organoids were cultured in Corning™ Matrigel™ Membrane Matrix (356231, Thermo Fisher Scientific) with Human IntestiCult medium (06010, StemCell Technology) supplemented with 1% of penicillin/streptomycin, 0.2% of MycoZap (VZA-2031, Lonza) in a 48-well plate.
(§2) For metabolic enzyme inhibitor treatment, the media was switched to metabolic enzyme inhibitor containing media at one day after splitting the mouse gastric organoids and cultured for 3 days. For metabolite treatment, mouse gastric organoids were treated 100 nM A939572 with metabolites (cis-11-eicosenoic acid or cis-7,10,13,16-docosatetraenoic acid) at one day after splitting the mouse gastric organoids and cultured for 3 days. […] Quantitative data analyses were performed using at least 3 wells of images at 4× magnification. For measurement of organoid growth, phase contrast images of organoids were captured over time and measured at the widest diameters using the ZEN 3.3 blue edition (Zeiss) measuring tool. […]
To determine the role of metabolic switch in dysplastic cells, expression levels of key metabolic enzymes, important for glycolysis or FA metabolism, were examined using gastric organoids established from each stage of GCK mice (FIG. 4A). […] The functional roles of metabolic pathways were assessed using key enzyme inhibitors in dysplastic organoids which highly expressed SCD1 (FIG. 4E). […]

[2] = tested on: Gif-rtTA; TetO-Cre; Kras^G12D (GCK) mice; test: In vivo A939572 treatment of GCK mice; conditions: 20 mg/kg intraperitoneal daily for 2 weeks
Method: All experiments involving mice used in this study followed protocols approved by the Institutional Animal Care and Use Committees of Vanderbilt University Medical Center. Littermates or age-matched mice were randomly allocated to experimental or control groups. Animal weights were recorded at initiation of experiment and at the time of euthanasia. To generate the Gif-rtTA; TetO-Cre; Kras^G12D (GCK) mice, the Gif-rtTA mice were crossed with TetO-Cre mice and Lox-Stop-Lox (LSL)-Kras^G12D mice (no. 006224 and 008179, Jackson Laboratories). For the induction of Cre-mediated recombination, 6-week-old mice were administered with doxycycline water at a concentration of 1 mg/mL for 2 weeks. Mice were sacrificed at 2 to 14 weeks after doxycycline treatment for histological examination. For in vivo A939572 treatment, A939572 (HY-50709; MedChemExpress) was dissolved in dimethyl sulfoxide (DMSO) as a 100 mg/mL stock and stored at −80° C. in aliquots. The A939572 was administered daily for two weeks by intraperitoneal injection (20 mg/kg diluted in corn oil) to mice at 6 weeks after doxycycline treatment. Mice were sacrificed within a day after the last A939572 treatment.
Mouse tissues were isolated and fixed overnight in 4% paraformaldehyde, embedded in paraffin. Paraffin-embedded sections were sectioned at a thickness of five-micrometer and stained with hematoxylin and eosin (H&E). For immunostaining, unstained paraffin tissue sections were deparaffinized in HistoClear (HS-200, National Diagnostics) and rehydrated through a serial dilution of ethanol. Antigen retrieval was performed in target retrieval solution (S1699 or S2367, Agilent) using a pressure cooker for 15 minutes. Sections were rinsed in dH2O and incubated with Serum-free Protein Block Solution (X0909, Agilent) for 1.5 hours at room temperature (RT). Sections were additionally incubated with Mouse on Mouse Blocking Reagent (MKB-2213-1, Vector Laboratories) for 30 min at RT to block nonspecific staining with primary antibodies generated in mice on mouse tissues. Primary antibodies were diluted in Antibody Diluent (S3022, Agilent) and applied to sections overnight at 4° C.
For immunofluorescence, paraffin sections were washed with 1×PBS three times and incubated with Alexa-conjugated secondary antibodies (Life Technologies, 1:500) for 1 hour at RT. Sections were washed with 1×PBS three times and incubated with Hoechst 33342 (62249, Thermo Fisher Scientific, 1:5000) for 5 min at RT. The sections were then washed with 1×PBS three times and mounted with Prolong gold anti-fade reagent (P36934, Thermo Fisher Scientific). Images were captured on a Zeiss Axio Imager M2 microscope with Axiovision digital imaging system at 20× magnification. For immunohistochemistry, paraffin sections were washed with 1×PBS three times and incubated with HRP-conjugated secondary antibodies (MP-7402, Vector Laboratories) for 15 min at RT. Sections were washed with 1×PBS three times and incubated with Envision+ Detection System Peroxidase/DAB substrate (Dako). Sections were then washed with dH2O and counterstained Mayer's Hematoxylin (MHS32, Sigma-Aldrich). The sections were dehydrated and mounted with aqueous mounting medium. The sections were scanned on an SCN400 Slide Scanner (Leica Biosystems) at 20× magnification. TUNEL staining was performed using the Click-iT Plus TUNEL assay kit, according to the manufacturer's protocol (C10618, Life Technologies).
H&E-stained sections were scanned in SCN400 Slide Scanner and analyzed by Aperio ImageScope software (Leica Biosystems). Gland types were classified using the same diagnostic criteria used for human tissue sections. Briefly, the gland representing foveolar hyperplasia without goblet cells and mucous metaplasia at the base was diagnosed as a pyloric metaplastic gland, while intestinal metaplasia was determined by presence of basophilic mucin droplet-containing cells in the foveolar region.

normal gastric organoids = test: A939572 treatment of normal gastric organoids; assay type: cell-based, mouse; conditions: 100 nM A939572
Method: as §1, with “The human gastric organoids were cultured in Corning™ Matrigel™ Membrane Matrix (356231, Thermo Fisher Scientific) with Human IntestiCult medium (06010, StemCell Technology) supplemented with 1% of penicillin/streptomycin, 0.2% of MycoZap (VZA-2031, Lonza) in a 48-well plate.” left out
as §2, with “media” for “media at one day after splitting the mouse gastric organoids and cultured for 3 days. For metabolite treatment, mouse gastric organoids were treated 100 nM A939572 with metabolites (cis-11-eicosenoic acid or cis-7,10,13,16-docosatetraenoic acid)”

[3] = tested on: human gastric organoid lines; test: A939572 treatment of human gastric organoid lines; assay type: cell-based; conditions: 1 μM for human
dysplastic organoids [4] = test: Metabolite rescue of A939572-treated dysplastic organoids; assay type: cell-based, mouse
Method: For metabolic enzyme inhibitor treatment, the media was switched to metabolic enzyme inhibitor containing media at one day after splitting the mouse gastric organoids and cultured for 3 days. For metabolite treatment, mouse gastric organoids were treated 100 nM A939572 with metabolites (cis-11-eicosenoic acid or cis-7,10,13,16-docosatetraenoic acid) at one day after splitting the mouse gastric organoids and cultured for 3 days. The EVOS M7000 inverted microscope (Thermo Fisher Scientific) or JuLI™ stage, a Real-Time Cell History Recorder (NanoEntek) were used to capture phase contrast images of the organoids or monitor the growth and morphological changes of the organoids in real-time. Quantitative data analyses were performed using at least 3 wells of images at 4× magnification. For measurement of organoid growth, phase contrast images of organoids were captured over time and measured at the widest diameters using the ZEN 3.3 blue edition (Zeiss) measuring tool. For Calcein AM/Ethidium-1(EthD-1) staining, mouse gastric organoids were cultured for 1 day after splitting and transferred to microfluidic-based flowchips (Protein Fluidics) that can enable 3D cell-based assay. The media containing 100 nM A939572 with metabolites (cis-11-eicosenoic acid or cis-7,10,13,16-docosatetraenoic acid) was added to the top of the organoids and cultured for 3 days. Then, the organoids were stained with […] (L3224, Thermo Fisher Scientific) for 30 min at 37° C. Confocal imaging was performed on a Zeiss LSM 880 using a 20× magnification. To prepare Formalin-Fixed, Paraffin-Embedded (FFPE) organoid sections, whole mouse or human gastric organoids in Matrigel™ were fixed in 4% PFA for 30 min at RT and washed with 1×PBS twice. The organoids were embedded in Epredia™ HistoGel™ (HG-4000-012, Thermo Fisher Scientific) and processed according to a standard histological protocol for paraffin embedding.
To address how and why dysplastic cells utilize the SCD-dependent FA desaturation, experiments examined the functions of two different unsaturated long-chain FAs, MUFA (FFA 20:1) and PUFA (FFA 22:4), which were abundant in dysplasia. Two metabolites, Eicosenoic acid (EA; 20:1n9, MUFA) and Docosatetraenoic acid (DA; 22:4n6, PUFA) (FIG. 7A) were selected based on the enhanced fragment ions detected from imaging mass spectrometry (FIG. 3E). Dysplastic organoids were co-treated with A939572, in combination with either EA or DA for 3 days. […] To determine the subcellular localization of EA in dysplastic cells, EA was conjugated with NBD, a green-fluorescent compound (NBD-EA) (FIG. 7B and FIG. 8A-B). […] Since the EA is imported into mitochondria, experiments further examined whether the EA undergoes FA oxidation which occurs in the mitochondrial aerobic metabolism and produces energy substrate for the TCA cycle.

AGS = test: EA-DM1 treatment of gastric cancer cell line AGS; assay type: cell-based
Method: (§3) FIG. 9A-B show cells treated with EA-DM1 (cis-11-eicosenoic acid conjugated to mertansine (DM1)). […] DMSO was used as a vehicle control. […] The NIH-3T3 cell line was used as a negative control, and mouse normal cells and DMSO were used as a vehicle control.
(§4) To evaluate whether EA-DM1 (cis-11-eicosenoic acid conjugated to mertansine (DM1)) could be internalized and release free DM1 toxin into the cytosol, two different gastric cancer cell lines, AGS and NCI-N87, were treated with EA-DM1 for 2 days (FIG. 9A-B). Gastric cancer cells died within 2 days after the EA-DM1 treatment at 100 nM concentration (FIG. 9A).

NCI-N87 = test: EA-DM1 treatment of gastric cancer cell line NCI-N87; assay type: cell-based; conditions: 100 nM
Method: as §3, §4

NIH-3T3 cells = test: EA-DM1 treatment of NIH-3T3 cells (negative control); assay type: cell-based, mouse; conditions: 5 nM, 2 days
Method: as §3, §4

dysplastic cells = test: Subcellular localization of NBD-EA in 2-dimensional monolayer culture; assay type: cell-based, mouse
Method: Mouse gastric organoids were dissociated into single cells and dissociated cells (5,000 cells/well) were seeded on the collagen-coated 8-well chamber slide (ibidi) in Mouse IntestiCult medium (06005, StemCell Technology) for two days until the cells reach at 50% confluency. The cells were incubated with NBD (Compound A) or NBD-conjugated Eicosenoic acid over time and then stained with 100 nM MitoTracker™ Red CMXRos (M7512, Thermo Fisher Scientific) for 20 min at 37° C. The cells were washed with pre-warmed 1×PBS three times and counterstained with Hoechst for 5 min at RT. Confocal imaging was performed on a Zeiss LSM 880 using 63× magnification.

[5] = co-treated with 100 nM A939572 for 3 days

## CNC(=O)c1cccc(NC(=O)N2CCC(Oc3ccccc3Cl)CC2)c1 [A939572, 4-(2-chlorophenoxy)-N-(3-(methylcarbamoyl)phenyl)piperidine-1-carboxamide]
Dysplastic organoids [1]; 100 nM A939572
  time within which dysplastic organoid growth and survival were impeded: ≤ 1 days
Dysplastic organoids [1]; 100 nM A939572, IF staining
  cell proliferation (Ki-67) in dysplastic organoids: a decrease in cell proliferation
  cleaved caspase-3 positive apoptotic cells in dysplastic organoids: accumulation of cleaved caspase-3 positive apoptotic cells in the central lumen of dysplastic organoids
[2]
  F4/80+CD68+ macrophages: slightly increased only at the base of glands
  F4/80+CD68- macrophage infiltration: significantly increased in the transitioning and surface areas
  SPEM cells after treatment: still present at the gland base and not co-positive for cleaved caspase-3 or TUNEL signal
  dead cells within the transitioning cell zone (cleaved caspase-3, TUNEL): significant increase in dead cells
[2]; at 6 weeks after doxycycline
  effects in other organs: without any effects in other organs
  gastric mucosa histology (H&E): flattened mucosa and loss of histological characteristics of dysplastic cells in the transitioning and surface areas of glands
Normal gastric organoids
  response of normal gastric organoids: did not show any significant changes
[3]; organoid lines with dysplastic histology expressing both SCD and Trop2
  time within which organoids died after treatment: ≤ 6 days
[3]; organoids with low level of SCD, Trop2 negative (metaplastic)
  response to treatment: did not respond to the treatment

## CCCCCC=CCC=CCC=CC/C=C\CCCCCC(=O)O [DA, cis-7,10,13,16-docosatetraenoic acid]
Dysplastic organoids [4]; [5]
  rescue of dysplastic organoids from SCD inhibition (organoid size): did not show any differences compared to the organoids treated only with A939572

## CCCCCCCC/C=C\CCCCCCCCCC(=O)O [EA, cis-11-eicosenoic acid]
Dysplastic organoids [4]; [5]
  organoid structure: not disrupted and showed clear central lumens
  rescue of dysplastic organoids from SCD inhibition (organoid size): recovered from SCD inhibition and displayed a significant increase in size

## CCCCCCCC/C=C\CCCCCCCCCC(=O)N1CCN(C(=O)CSCCC(=O)N(C)[C@H](C)C(=O)O[C@@H]2CC(=O)N(C)c3cc(cc(OC)c3Cl)C/C(C)=C/C=C/[C@H](OC)[C@]3(O)C[C@@H](OC(=O)N3)[C@H](C)[C@H]3O[C@@]32C)CC1 [EA-DM1, (1^4S,1^6S,3^2S,3^3R,2R,4S,10E,12E,14R)-8^6-chloro-1^4-hydroxy-8^5,14-dimethoxy-3^3,2,7,10-tetramethyl-1^2,6-dioxo-7-aza-1(6,4)-oxazinana-3(2,3)-oxirana-8(1,3)-benzenacyclotetradecaphane-10,12-dien-4-yl N-(3-((2-(4-((Z)-icos-11-enoyl)piperazin-1-yl)-2-oxoethyl)thio)propanoyl)-N-methyl-L-alaninate]
AGS; 5 nM, 2 days
  targeting of gastric cancer cells: effectively targeted gastric cancer cells
AGS; 100 nM
  time within which gastric cancer cells died after treatment: ≤ 2 days
NCI-N87
  time within which gastric cancer cells died after treatment: ≤ 2 days
NIH-3T3 cells
  changes in normal mouse fibroblast cells: no noticeable changes

## CCCCCCCC/C=C\CCCCCCCCCC(=O)Nc1ccc([N+](=O)[O-])c2nonc12 [NBD-EA, NBD-cis-11-Eicosenoic acid (C20:1, n-9)]
Dysplastic cells; 6 h after treatment
  NBD fluorescent signal in dysplastic cells: not detectable
Dysplastic cells; 24 h
  NBD fluorescent signal in dysplastic cells: strongly accumulated in mitochondria
Dysplastic cells; 48 h
  NBD fluorescent signal in dysplastic cells: weakly maintained

## C1CCC(C(CC2CCCCN2)C2CCCCC2)CC1 (stereo not drawn) [perhexiline]
Dysplastic organoids [4]; A939572, EA and perhexiline 10 μM, 3 days
  organoid growth after co-treatment: did not display any significant increase in organoid growth
Dysplastic organoids [4]; perhexiline 10 μM with A939572 and EA, 3 days
  effect of FA oxidation inhibition on rescue by EA: abolished rescue effects of EA in dysplastic organoids
